Measured values: ChEMBL document CHEMBL1201862, “PubChem BioAssay data set” (2004)
Activity calls are given as the source filed them. Cut-off read from the data, not from the text of the source, for most assays here: actives have a measured EC50 and inactives only a lower limit.

Tests used:
[1] = target: Nonstructural protein 1 (Influenza A virus, UniProt Q194T2); type: functional, Influenza A virus (A/California/07/2009(H1N1))
[2] = target: T1, Leucine aminopeptidase (Plasmodium falciparum 3D7, UniProt Q8IL11); assay: P. falciparum M17LAP inhibitors, primary screen, biochemical, fluorogenic H-Leu-NHMec substrate, 1536-well (AID 1619); type: functional
T1 sequence (Q8IL11 whole entry): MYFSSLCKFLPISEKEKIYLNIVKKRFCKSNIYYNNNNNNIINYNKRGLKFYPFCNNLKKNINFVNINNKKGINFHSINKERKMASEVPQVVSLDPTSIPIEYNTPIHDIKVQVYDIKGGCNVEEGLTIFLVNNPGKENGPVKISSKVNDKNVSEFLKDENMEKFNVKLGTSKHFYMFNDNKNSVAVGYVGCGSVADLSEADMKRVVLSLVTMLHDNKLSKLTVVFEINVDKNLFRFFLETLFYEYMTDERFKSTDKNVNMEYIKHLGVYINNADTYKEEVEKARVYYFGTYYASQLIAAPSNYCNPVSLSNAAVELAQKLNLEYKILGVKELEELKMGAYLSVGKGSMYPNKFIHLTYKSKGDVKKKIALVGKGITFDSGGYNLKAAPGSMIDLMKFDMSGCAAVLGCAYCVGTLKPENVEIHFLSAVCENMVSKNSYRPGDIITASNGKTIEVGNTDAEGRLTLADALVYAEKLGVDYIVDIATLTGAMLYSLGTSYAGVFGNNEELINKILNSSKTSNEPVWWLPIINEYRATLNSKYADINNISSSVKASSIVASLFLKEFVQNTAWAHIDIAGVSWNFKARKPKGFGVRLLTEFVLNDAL

[3] = target: Glyceraldehyde-3-phosphate dehydrogenase (Homo sapiens, UniProt P04406)
[4] = A cytotoxicity screen of small molecule inhibitors of the PhoP region in Salmonella typhi identified in the primary screen. [Related pubchem assays: 1850, 1864, 1985 ]; type: functional
[5] = target: T2, Short transient receptor potential channel 4 (Mus musculus, UniProt Q9QUQ5); assay: mouse TRPC4 channel inhibitors, dose response, cell-based, HEK293 TRPC4/mu-opioid, Fluo-4 calcium (AID 434942); type: functional;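 note: potency of inhibitors blocking the TRPC4 calcium response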
T2 sequence (Q9QUQ5 whole entry): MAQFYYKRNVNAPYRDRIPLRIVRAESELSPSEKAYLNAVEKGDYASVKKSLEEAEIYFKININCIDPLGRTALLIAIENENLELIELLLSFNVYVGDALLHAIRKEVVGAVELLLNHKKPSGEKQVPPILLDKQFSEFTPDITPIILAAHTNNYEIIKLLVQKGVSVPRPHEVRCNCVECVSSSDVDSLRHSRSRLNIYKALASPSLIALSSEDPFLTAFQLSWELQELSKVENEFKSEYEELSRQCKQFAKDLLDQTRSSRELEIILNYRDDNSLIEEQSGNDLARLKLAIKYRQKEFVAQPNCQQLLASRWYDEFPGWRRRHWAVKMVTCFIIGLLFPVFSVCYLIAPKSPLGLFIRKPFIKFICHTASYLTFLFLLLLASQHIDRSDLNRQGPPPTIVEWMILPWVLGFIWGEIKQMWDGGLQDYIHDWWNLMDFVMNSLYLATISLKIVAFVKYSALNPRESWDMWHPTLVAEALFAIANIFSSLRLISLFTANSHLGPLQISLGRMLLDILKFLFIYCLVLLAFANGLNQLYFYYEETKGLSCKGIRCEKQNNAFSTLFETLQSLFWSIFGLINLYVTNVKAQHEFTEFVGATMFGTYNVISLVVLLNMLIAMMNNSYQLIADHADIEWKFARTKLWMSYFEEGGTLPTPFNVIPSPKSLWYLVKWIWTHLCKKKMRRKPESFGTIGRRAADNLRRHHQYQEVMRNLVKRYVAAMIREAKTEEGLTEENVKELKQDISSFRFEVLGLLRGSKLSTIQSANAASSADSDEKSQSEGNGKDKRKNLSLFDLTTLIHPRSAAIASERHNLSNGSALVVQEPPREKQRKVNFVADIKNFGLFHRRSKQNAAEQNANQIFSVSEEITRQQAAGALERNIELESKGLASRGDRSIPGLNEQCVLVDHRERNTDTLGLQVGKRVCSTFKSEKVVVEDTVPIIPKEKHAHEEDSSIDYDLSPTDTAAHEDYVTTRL

[6] = cytotoxicity toward DRD oncogenic fibroblasts, dose response, cell-based, non-viral oncogenic, luminescence (AID 1934); type: functional; details: Homo sapiens
[7] = tested on: BJ; assay: cytotoxicity toward BJ-TERT fibroblasts, dose response, cell-based, RAS-independent, luminescence (AID 1933); type: functional; details: Homo sapiens
[8] = inhibitors of firefly luciferase expression or activity, dose response, H4 neuroglioma cells, luminescence (AID 1990); type: functional, cell-based
[9] = inhibitors of SNCA 5'UTR-driven reporter translation, confirmation, H4 neuroglioma cells, luminescence (AID 1988); type: functional, cell-based
[10] = tested on: BJ; assay: cytotoxicity toward BJ-TERT-LT-ST fibroblasts, dose response, cell-based, RAS-independent, luminescence (AID 1935); type: functional; details: Homo sapiens;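 note: BJ fibroblasts immortalized with TERT plus LT and ST oncogenes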
[11] = tested on: BJ; assay: cells; type: functional, cell-based; details: Homo sapiens
[12] = Luminescence Cell-Based Dose Response HTS to Identify Inhibitors of 5'UTR Stem-Loop Driven Prion Protein mRNA Translation in H4 Neuroglioblastoma Cells. [Related pubchem assays: 1827 (Project Summary), 1813 (Primary HTS)]; type: functional
[13] = target: T3, Protein RecA (Mycobacterium tuberculosis, UniProt P9WHJ3); assay: Fluorescence Cell-Free Homogeneous Dose Retest to Identify Inhibitors of RecA-Intein Splicing Activity. [Related pubchem assays (depositor defined):AID2097, AID2223, AID489010, AID492950]; type: functional
T3 sequence (P9WHJ3 whole entry): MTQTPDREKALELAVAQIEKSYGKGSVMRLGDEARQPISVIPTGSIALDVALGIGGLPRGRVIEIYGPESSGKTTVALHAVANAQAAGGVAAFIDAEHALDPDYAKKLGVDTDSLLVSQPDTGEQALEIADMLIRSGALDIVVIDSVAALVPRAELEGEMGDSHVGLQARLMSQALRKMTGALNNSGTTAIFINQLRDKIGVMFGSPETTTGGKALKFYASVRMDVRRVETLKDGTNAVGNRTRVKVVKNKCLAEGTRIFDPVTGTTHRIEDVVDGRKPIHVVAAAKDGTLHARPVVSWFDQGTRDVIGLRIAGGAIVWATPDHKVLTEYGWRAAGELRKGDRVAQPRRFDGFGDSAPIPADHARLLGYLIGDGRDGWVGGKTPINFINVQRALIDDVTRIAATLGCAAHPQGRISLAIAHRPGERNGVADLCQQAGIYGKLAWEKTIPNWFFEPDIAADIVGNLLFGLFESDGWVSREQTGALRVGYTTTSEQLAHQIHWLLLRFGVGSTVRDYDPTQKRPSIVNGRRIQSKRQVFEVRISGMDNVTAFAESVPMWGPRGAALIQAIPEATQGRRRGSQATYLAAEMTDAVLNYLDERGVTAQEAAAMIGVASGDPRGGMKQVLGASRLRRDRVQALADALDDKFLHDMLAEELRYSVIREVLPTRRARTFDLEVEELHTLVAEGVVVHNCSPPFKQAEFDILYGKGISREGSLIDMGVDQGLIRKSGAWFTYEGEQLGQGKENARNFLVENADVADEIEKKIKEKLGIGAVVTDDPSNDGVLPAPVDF

[14] = target: T4, Replicative DNA helicase DnaB (Mycobacterium tuberculosis, UniProt P9WMR3); assay: DnaB intein splicing inhibitors, dose response, biochemical, cell-free fluorescence (AID 449749); type: functional
T4 sequence (P9WMR3 whole entry): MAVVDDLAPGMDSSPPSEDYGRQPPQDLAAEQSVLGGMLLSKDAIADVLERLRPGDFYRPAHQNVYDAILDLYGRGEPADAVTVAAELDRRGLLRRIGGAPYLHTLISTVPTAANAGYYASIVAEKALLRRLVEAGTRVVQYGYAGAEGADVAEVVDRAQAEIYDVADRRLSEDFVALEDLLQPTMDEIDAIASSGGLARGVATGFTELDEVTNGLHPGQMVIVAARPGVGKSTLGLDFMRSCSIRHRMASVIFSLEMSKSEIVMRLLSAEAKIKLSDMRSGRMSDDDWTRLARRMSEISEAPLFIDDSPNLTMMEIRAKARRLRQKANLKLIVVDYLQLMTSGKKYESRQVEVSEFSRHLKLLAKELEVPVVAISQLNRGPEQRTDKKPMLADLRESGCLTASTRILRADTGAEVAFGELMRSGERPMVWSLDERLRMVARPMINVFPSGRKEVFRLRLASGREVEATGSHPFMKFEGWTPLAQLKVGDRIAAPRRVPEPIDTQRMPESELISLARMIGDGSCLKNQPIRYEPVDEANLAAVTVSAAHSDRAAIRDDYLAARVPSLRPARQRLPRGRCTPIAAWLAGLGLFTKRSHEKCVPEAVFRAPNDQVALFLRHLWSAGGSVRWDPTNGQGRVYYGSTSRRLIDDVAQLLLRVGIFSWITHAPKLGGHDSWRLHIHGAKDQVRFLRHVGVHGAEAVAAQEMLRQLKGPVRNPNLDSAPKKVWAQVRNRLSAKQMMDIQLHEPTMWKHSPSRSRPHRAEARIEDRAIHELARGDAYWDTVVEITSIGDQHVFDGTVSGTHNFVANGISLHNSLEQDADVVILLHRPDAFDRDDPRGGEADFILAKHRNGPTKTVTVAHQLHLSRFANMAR

[15] = Luminescence Cell-Based Dose Confirmation HTS to Identify Inhibitors of Platelet Dense Granule Release. [Related pubchem assays: 1663 (Primary HTS), 1678 (Summary of Project)]; type: functional
[16] = target: Luciferin 4-monooxygenase (Photinus pyralis, UniProt P08659); assay: firefly luciferase enzyme inhibitors, dose response, biochemical, luminescence (AID 1891)
Sequence of Luciferin 4-monooxygenase (P08659 whole entry): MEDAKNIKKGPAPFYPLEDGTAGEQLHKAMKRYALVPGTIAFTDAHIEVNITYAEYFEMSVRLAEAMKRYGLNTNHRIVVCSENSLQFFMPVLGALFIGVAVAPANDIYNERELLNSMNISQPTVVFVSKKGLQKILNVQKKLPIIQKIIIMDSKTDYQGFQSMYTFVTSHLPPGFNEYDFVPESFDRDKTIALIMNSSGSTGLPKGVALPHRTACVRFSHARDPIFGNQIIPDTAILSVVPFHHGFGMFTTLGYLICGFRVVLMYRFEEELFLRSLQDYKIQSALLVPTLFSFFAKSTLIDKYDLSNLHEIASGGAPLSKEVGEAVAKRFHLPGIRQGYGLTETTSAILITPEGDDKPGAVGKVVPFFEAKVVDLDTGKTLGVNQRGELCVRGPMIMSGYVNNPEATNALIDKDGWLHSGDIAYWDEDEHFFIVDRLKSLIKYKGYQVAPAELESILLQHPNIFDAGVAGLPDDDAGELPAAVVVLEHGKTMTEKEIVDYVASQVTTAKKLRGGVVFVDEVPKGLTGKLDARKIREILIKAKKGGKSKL

Sequence of Glyceraldehyde-3-phosphate dehydrogenase (P04406 whole entry): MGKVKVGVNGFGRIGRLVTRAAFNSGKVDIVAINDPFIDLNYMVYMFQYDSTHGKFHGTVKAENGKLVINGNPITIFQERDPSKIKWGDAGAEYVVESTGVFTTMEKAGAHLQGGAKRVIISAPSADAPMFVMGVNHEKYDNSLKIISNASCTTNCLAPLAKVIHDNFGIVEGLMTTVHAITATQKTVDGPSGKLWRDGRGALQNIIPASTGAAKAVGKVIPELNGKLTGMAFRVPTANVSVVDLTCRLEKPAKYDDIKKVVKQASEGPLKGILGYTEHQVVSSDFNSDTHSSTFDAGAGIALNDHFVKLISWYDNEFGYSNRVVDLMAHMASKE
Sequence of Nonstructural protein 1 (Q194T2 whole entry): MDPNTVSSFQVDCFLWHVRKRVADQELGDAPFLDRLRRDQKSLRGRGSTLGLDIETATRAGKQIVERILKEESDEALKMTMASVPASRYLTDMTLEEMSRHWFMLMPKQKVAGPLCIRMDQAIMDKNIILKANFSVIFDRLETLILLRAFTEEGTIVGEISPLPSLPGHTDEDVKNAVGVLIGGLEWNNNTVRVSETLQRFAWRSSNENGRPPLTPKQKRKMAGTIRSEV

Structure (SMILES): O=[N+]([O-])c1cccc(/C=N/c2cc3c(cc2Br)OCCO3)c1
- IC50 [1]: > 100 µM (active)

Structure (SMILES): CC[C@H](C)[C@H](NC(=O)[C@H](Cc1ccc(O)cc1)NC(=O)[C@@H](N)C(C)C)C(=O)N[C@@H](Cc1cnc[nH]1)C(=O)N1CCC[C@H]1C(=O)N[C@@H](Cc1ccccc1)C(=O)O [ANGIOTENSIN IV]
- IC50 [2]: 1.53 µM (active)

Structure (SMILES): O=C1C(Cl)=C(N2CCOCC2)C(=O)N1c1ccc(C(F)(F)F)cc1
- IC50 [3]: > 50 µM (inconclusive)

Structure (SMILES): Cc1ccc(SCc2n[nH]c3c2C(c2cccnc2)C(C#N)=C(N)O3)cc1 (stereo unspecified)
- EC50 [4]: > 50 µM (active)

Structure (SMILES): Cc1cccc(Nc2nnc(SCC(=O)Nc3ccc(C(=O)O)cc3)s2)c1
- IC50 [2]: 24.3 µM (active)

Structure (SMILES): CC(=O)c1c(C)oc2ccc(NS(=O)(=O)c3ccc(O)c(C(=O)O)c3)cc12
- IC50 [2]: 9.78 µM (active)

Structure (SMILES): COc1cccc(N2C(=O)C(Cl)=C(N3CCN(C)CC3)C2=O)c1
- IC50 [3]: > 50 µM (inconclusive)

Structure (SMILES): OCCNc1nc2ccccc2n1CCN1CCCCC1
- EC50 [5]: 3.35 µM (active)

Structure (SMILES): COc1cc(C(=O)N/N=C/c2sccc2C)cc(OC)c1OC
- EC50 [6]: 0.65 µM (inconclusive)
- EC50 [7]: 0.636 µM (inconclusive)
- EC50 [8]: 0.292 µM (active)
- EC50 [9]: 0.114 µM (active)
- EC50 [10]: 0.421 µM (active)
- EC50 [11]: 2.57 µM (inconclusive)
- EC50 [12]: 0.219 µM (active)

Structure (SMILES): COC(=O)c1ccc(Nc2cc(C)nc3ccccc23)cc1
- EC50 [8]: 11.6 µM (active)
- EC50 [9]: 7.97 µM (active)
- EC50 [5]: 3.76 µM (active)
- EC50 [12]: 16.4 µM (active)

Structure (SMILES): CN1CCN(Cc2c[nH]nc2-c2ccc(F)cc2F)[C@@H](c2ccccc2)C1
- EC50 [5]: 4.22 µM (active)

Structure (SMILES): CC1CC1C(=O)Nc1nc2ccc(S(C)(=O)=O)cc2s1 (stereo unspecified)
- EC50 [4]: > 50 µM (active)

Structure (SMILES): O=C(CCl)N(Cc1cccc([N+](=O)[O-])c1)c1cccc(Cl)c1
- EC50 [13]: 0.512 µM (active)
- EC50 [6]: 1.22 µM (active)
- EC50 [7]: 0.25 µM (active)
- EC50 [10]: 4.87 µM (inconclusive)
- EC50 [11]: 1.41 µM (inconclusive)
- AC50 [14]: 5.28 µM (active)

Structure (SMILES): Cc1ccc(N2C(=O)C(Cl)=C(N3CCN(C)CC3)C2=O)cc1
- IC50 [3]: > 50 µM (inconclusive)

Structure (SMILES): Cc1noc(C)c1S(=O)(=O)N1CCC(Cc2ccccc2)CC1
- EC50 [4]: > 50 µM (active)

Structure (SMILES): Cc1ccsc1C(=O)Nc1ccc(OCc2ccccc2)cc1
- EC50 [6]: > 150 µM (inconclusive)
- EC50 [7]: > 150 µM (not active)
- EC50 [10]: > 150 µM (not active)
- EC50 [15]: 5.83 µM (active)
- EC50 [16]: 1.7 µM (active)
- EC50 [11]: 34.4 µM (active)

Structure (SMILES): CCCCCN1C(=O)/C(=C/c2c(N3CCc4ccccc4C3)nc3ccccn3c2=O)SC1=S
- EC50 [4]: > 50 µM (active)

Structure (SMILES): COCCN1C(=O)/C(=C/c2ccc(N3CCCC3)cc2C)SC1=S
- EC50 [6]: > 150 µM (not active)
- EC50 [7]: 27.7 µM (active)
- EC50 [10]: > 150 µM (not active)
- EC50 [11]: > 150 µM (inconclusive)

Structure (SMILES): c1csc(CNc2nc(-c3cccs3)nc3ccccc23)c1
- EC50 [5]: 4.73 µM (active)

Structure (SMILES): Fc1cccc(Cl)c1CSc1ccc(-c2ccco2)nn1
- EC50 [4]: > 50 µM (active)

Structure (SMILES): Cc1nc(-c2ccc(C(=O)Nc3cccc(F)c3)cc2)cs1
- EC50 [6]: 23.8 µM (active)
- EC50 [7]: 38.1 µM (active)
- EC50 [10]: > 150 µM (inconclusive)
- EC50 [11]: 24.3 µM (active)
